# Data taken from patent US11986471B2, “Compounds and methods of use” (Tango Therapeutics, Inc., priority 2018, dated 2024).
# How the values were obtained:
# [1] = biological target: T1, PRMT5 (Homo sapiens, UniProt O14744); assay: PRMT5 IC50 assay in the presence of SAM as cofactor; type: biochemical
# T1 construct: purchased Viva (custom protein)
# Outline: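 Three cofactor conditions tested for PRMT5 inhibition: none, MTA and SAM, each giving an IC50. For conversion to Ki, the MTA-condition IC50 is divided by 13.5 and the SAM-condition IC50 by 1.5, and the two Ki values are expressed as a SAM/MTA ratio.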
# [2] = biological target: T1, PRMT5; assay: PRMT5 IC50 assay with no cofactor; type: biochemical; conditions: read-out: No Co-factor IC50
# Outline: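 Potency against PRMT5 is compared across cofactor states, where IC50 equals Ki×1.5 with SAM present and Ki×13.5 with MTA present.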
# [3] = biological target: T1, PRMT5; assay: PRMT5 IC50 assay in the presence of MTA as cofactor; type: biochemical; conditions: for IC50: PRMT5, MTA as cofactor; for SAM/MTA Ratio: ratio between Ki in the presence of SAM and Ki in the presence of MTA
# Outline: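 For the SAM-containing format, dividing IC50 by 1.5 yields Ki; for the MTA-containing format the divisor is 13.5. A third format without cofactor gives IC50 alone.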
# [4] = test system: HAP1 MTAP-intact; assay: SDMA in-cell western assay, HAP1 MTAP-intact cell line; type: cell-based; conditions: Homo sapiens
# Outline: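 Potency reflects cellular SDMA reduction, detected by in-cell western, in HAP1 cells with or without MTAP (endogenous expression versus null).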
# [5] = test system: HAP1 MTAP-deleted; assay: SDMA in-cell western assay, HAP1 MTAP-deleted cell line; type: cell-based; conditions: for IC50: Homo sapiens, HAP1 MTAP-deleted cell line; for MTAP Intact/Deleted Ratio: IC50 ratio HAP1 MTAP-intact / HAP1 MTAP-deleted
# Outline: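 These are IC50 values from an in-cell western measuring SDMA. The HAP1 cells used carry no MTAP, in contrast to the isogenic partner line with endogenous MTAP expression.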
# T1 sequence (O14744 whole entry): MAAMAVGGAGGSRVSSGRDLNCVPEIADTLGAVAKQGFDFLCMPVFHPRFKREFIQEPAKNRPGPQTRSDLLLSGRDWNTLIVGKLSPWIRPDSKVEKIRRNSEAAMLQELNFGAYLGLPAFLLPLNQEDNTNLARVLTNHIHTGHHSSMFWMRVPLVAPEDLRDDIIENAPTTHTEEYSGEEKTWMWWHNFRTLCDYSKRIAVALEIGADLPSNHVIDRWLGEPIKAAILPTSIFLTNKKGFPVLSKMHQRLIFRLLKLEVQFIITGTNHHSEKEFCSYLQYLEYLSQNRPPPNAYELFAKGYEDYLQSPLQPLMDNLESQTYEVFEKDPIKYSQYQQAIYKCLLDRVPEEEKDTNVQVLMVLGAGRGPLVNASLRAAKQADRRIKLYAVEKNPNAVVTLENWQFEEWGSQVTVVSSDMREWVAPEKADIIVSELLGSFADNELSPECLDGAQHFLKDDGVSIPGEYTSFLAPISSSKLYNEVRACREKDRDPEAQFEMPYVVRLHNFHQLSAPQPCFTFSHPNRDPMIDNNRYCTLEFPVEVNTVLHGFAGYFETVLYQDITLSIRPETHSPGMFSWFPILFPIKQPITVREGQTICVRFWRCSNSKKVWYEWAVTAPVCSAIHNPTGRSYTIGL
# T1 sequence (Q9BQA1 whole entry partner): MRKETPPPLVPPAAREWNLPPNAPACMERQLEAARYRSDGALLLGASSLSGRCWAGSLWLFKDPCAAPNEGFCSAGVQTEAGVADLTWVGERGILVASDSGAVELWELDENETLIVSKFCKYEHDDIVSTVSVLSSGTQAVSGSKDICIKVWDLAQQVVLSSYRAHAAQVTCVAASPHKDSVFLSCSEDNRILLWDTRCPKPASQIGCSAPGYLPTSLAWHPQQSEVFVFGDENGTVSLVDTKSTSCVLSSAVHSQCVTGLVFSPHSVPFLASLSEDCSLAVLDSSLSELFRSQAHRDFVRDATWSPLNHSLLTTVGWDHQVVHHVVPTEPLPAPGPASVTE
IC50 [1] [µM],IC50 [2] [µM],IC50 [3] [µM],IC50 [4] [µM],IC50 [5] [µM],SMILES,SAM/MTA Ratio [3],MTAP Intact/Deleted Ratio [5]
0.5 to 5,≥ 5,0.5 to 5,1 to 10,1 to 10,"Cc1cc(OCc2cnco2)cc2c1CN(C[C@@H](O)CNC(=O)c1ccnc(NC3CCC3)c1)CC2 [Compound 260, 2-(cyclobutylamino)-N-[(2S)-2-hydroxy-3-[8-methyl-6-(oxazol-5-ylmethoxy)-3,4-dihydro-1H-isoquinolin-2-yl]propyl]pyridine-4-carboxamide]",A (a Ki ratio greater than or equal to 10 fold between the Ki in the presence of SAM and the Ki in the presence of MTA),C* (an IC50 ratio of less than 3 fold between the IC50 in the HAP1 MTAP-intact cell line and the HAP1 MTAP-deleted cell line)
0.05 to 0.5,0.5 to 5,0.05 to 0.5,< 1,1 to 10,"CC(=O)N1CCC(Nc2cc(C(=O)NC[C@H](O)CN3CCc4c(ccc(OCc5cn[nH]c5)c4Cl)C3)ncn2)CC1 [Compound 261, 6-[(1-acetyl-4-piperidyl)amino]-N-[(2S)-3-[5-chloro-6-(1H-pyrazol-4-ylmethoxy)-3,4-dihydro-1H-isoquinolin-2-yl]-2-hydroxy-propyl]pyrimidine-4-carboxamide]",A (a Ki ratio greater than or equal to 10 fold between the Ki in the presence of SAM and the Ki in the presence of MTA),C* (an IC50 ratio of less than 3 fold between the IC50 in the HAP1 MTAP-intact cell line and the HAP1 MTAP-deleted cell line)
0.5 to 5,≥ 5,0.05 to 0.5,1 to 10,1 to 10,"Cc1ncoc1COc1ccc2c(c1)CCN(C[C@@H](O)CNC(=O)c1cccc(NC3COC3)c1)C2 [Compound 262, (S)—N-(2-hydroxy-3-(6-((4-methyloxazol-5-yl)methoxy)-3N-dihydroisoquinolin-2(1H)-yl)propyl)-3-(oxetan-3-ylamino)benzamide]",A (a Ki ratio greater than or equal to 10 fold between the Ki in the presence of SAM and the Ki in the presence of MTA),C* (an IC50 ratio of less than 3 fold between the IC50 in the HAP1 MTAP-intact cell line and the HAP1 MTAP-deleted cell line)
0.5 to 5,≥ 5,0.5 to 5,≥ 10,≥ 10,"Cc1nocc1COc1ccc2c(c1C)CCN(C[C@@H](O)CNC(=O)c1ccnc(NC3CCC3)c1)C2 [Compound 263, 2-(cyclobutylamino)-N-[(2S)-2-hydroxy-3-[5-methyl-6-[(3-methylisoxazol-4-yl)methoxy]-3,4-dihydro-1H-isoquinolin-2-yl]propyl]pyridine-4-carboxamide]",A (a Ki ratio greater than or equal to 10 fold between the Ki in the presence of SAM and the Ki in the presence of MTA),C* (an IC50 ratio of less than 3 fold between the IC50 in the HAP1 MTAP-intact cell line and the HAP1 MTAP-deleted cell line)
0.5 to 5,≥ 5,0.05 to 0.5,≥ 10,≥ 10,"CC(=O)N1CCC(Nc2cc(C(=O)NC[C@H](O)CN3CCc4c(ccc(OCc5conc5C)c4C)C3)ncn2)CC1 [Compound 264, (S)-6-((1-acetylpiperidin-4-yl)amino)-N-(2-hydroxy-3-(5-methyl-6-((3-methylisoxazol-4-yl)methoxy)-3N-dihydroisoquinolin-2(1H)-yl)propyl)pyrimidine-4-carboxamide]",A (a Ki ratio greater than or equal to 10 fold between the Ki in the presence of SAM and the Ki in the presence of MTA),C* (an IC50 ratio of less than 3 fold between the IC50 in the HAP1 MTAP-intact cell line and the HAP1 MTAP-deleted cell line)
0.5 to 5,≥ 5,0.05 to 0.5,≥ 10,≥ 10,"Cc1ncoc1COc1ccc2c(c1Br)CCN(C[C@@H](O)CNC(=O)c1ccnc(NC3CCC3)c1)C2 [Compound 267, N-[(2S)-3-[5-bromo-6-[(4-methyloxazol-5-yl)methoxy]-3,4-dihydro-1H-isoquinolin-2-yl]-2-hydroxy-propyl]-2-(cyclobutylamino)pyridine-4-carboxamide]",–,C* (an IC50 ratio of less than 3 fold between the IC50 in the HAP1 MTAP-intact cell line and the HAP1 MTAP-deleted cell line)
0.5 to 5,≥ 5,0.5 to 5,≥ 10,≥ 10,"Cc1ncoc1COc1ccc2c(c1I)CCN(C[C@@H](O)CNC(=O)c1ccnc(NC3CCC3)c1)C2 [Compound 268, 2-(cyclobutylamino)-N-[(2S)-2-hydroxy-3-[5-iodo-6-[(4-methyloxazol-5-yl)methoxy]-3,4-dihydro-1H-isoquinolin-2-yl]propyl]pyridine-4-carboxamide]",–,C* (an IC50 ratio of less than 3 fold between the IC50 in the HAP1 MTAP-intact cell line and the HAP1 MTAP-deleted cell line)
0.05 to 0.5,0.5 to 5,0.05 to 0.5,< 1,< 1,"O=C(NC[C@H](O)CN1CCc2cc(OCc3cnco3)ccc2C1)c1cncc(NC2CCC2)c1 [Compound 270, (S)-5-(cyclobutylamino)-N-(2-hydroxy-3-(6-(oxazol-5-ylmethoxy)-3N-dihydroisoquinolin-2(1H)-yl)propyl)nicotinamide]",A (a Ki ratio greater than or equal to 10 fold between the Ki in the presence of SAM and the Ki in the presence of MTA),C* (an IC50 ratio of less than 3 fold between the IC50 in the HAP1 MTAP-intact cell line and the HAP1 MTAP-deleted cell line)
0.05 to 0.5,0.5 to 5,0.05 to 0.5,< 1,< 1,"Cc1ncoc1COc1ccc2c(c1)CCN(C[C@@H](O)CNC(=O)c1cncc(NC3CCC3)c1)C2 [Compound 271, (S)-5-(cyclobutylamino)-N-(2-hydroxy-3-(6-((4-methyloxazol-5-yl)methoxy)-3N-dihydroisoquinolin-2(1H)-yl)propyl)nicotinamide]",A (a Ki ratio greater than or equal to 10 fold between the Ki in the presence of SAM and the Ki in the presence of MTA),C* (an IC50 ratio of less than 3 fold between the IC50 in the HAP1 MTAP-intact cell line and the HAP1 MTAP-deleted cell line)

SMILES,IC50 [1] [µM],IC50 [2] [µM],IC50 [3] [µM],IC50 [4] [µM],IC50 [5] [µM],SAM/MTA Ratio [3],MTAP Intact/Deleted Ratio [5]
"Cc1ncoc1COc1cc2c(cc1F)CN(C[C@@H](O)CNC(=O)c1ccnc(NC3CCC3)c1)CC2 [Compound 266, (S)-2-(cyclobutylamino)-N-(3-(7-fluoro-6-((4-methyloxazol-5-yl)methoxy)-3,4-dihydroisoquinolin-2(1H)-yl)-2-hydroxypropyl)isonicotinamide]",0.05 to 0.5,0.5 to 5,0.05 to 0.5,1 to 10,1 to 10,A (a Ki ratio greater than or equal to 10 fold between the Ki in the presence of SAM and the Ki in the presence of MTA),B* (an IC50 ratio greater than or equal to 3 fold but lower than 10 fold between the IC50 in the HAP1 MTAP-intact cell line and the HAP1 MTAP-deleted cell line)
